{"source": "paper PMC5218480", "about": "(PLoS ONE, 2017)", "test_system": "MV-4-11 cells", "experiment": "Gene expression microarray analysis (Affymetrix PrimeView) and GSEA", "type": "cell-based, human", "design": "RFU PODN (11730768_x_at) / Fold change /veh PODN (11730768_x_at) / RFU LINC00158 (11744669_a_at) / Fold change /veh LINC00158 (11744669_a_at) / RFU DUSP10 (11751237_a_at) / Fold change /veh DUSP10 (11751237_a_at) / RFU ID3 (11757404_x_at) / Fold change /veh ID3 (11757404_x_at) / RFU PLEKHG5 (11737974_s_at) / Fold change /veh PLEKHG5 (11737974_s_at) / RFU LRRC4B (11730491_at) / Fold change /veh LRRC4B (11730491_at) / RFU GIMAP4 (11747438_a_at) / Fold change /veh GIMAP4 (11747438_a_at) / RFU KRT8 (11758183_x_at) / Fold change /veh KRT8 (11758183_x_at) / RFU CNN1 (11734310_a_at) / Fold change /veh CNN1 (11734310_a_at) / RFU VPS37D (11726825_at) / Fold change /veh VPS37D (11726825_at) / RFU C10orf10 (11716522_x_at) / Fold change /veh C10orf10 (11716522_x_at) / RFU KIR2DL2 /// KIR2DL4 /// KIR2DL5A /// KIR2DL5B /// KIR2DS1 /// KIR2DS2 /// KIR2DS3 /// KIR2DS4 /// KIR3DL3 /// KIR3DL3 /// KIR3DS1 (11738374_at) / Fold change /veh KIR2DL2 /// KIR2DL4 /// KIR2DL5A /// KIR2DL5B /// KIR2DS1 /// KIR2DS2 /// KIR2DS3 /// KIR2DS4 /// KIR3DL3 /// KIR3DL3 /// KIR3DS1 (11738374_at) / RFU C1QL1 (11718748_at) / Fold change /veh C1QL1 (11718748_at) / RFU TMPRSS4 (11747572_a_at) / Fold change /veh TMPRSS4 (11747572_a_at) / RFU HAMP (11756126_x_at) / Fold change /veh HAMP (11756126_x_at) / RFU RNFT2 (11725882_a_at) / Fold change /veh RNFT2 (11725882_a_at) / RFU NR4A2 (11747474_a_at) / Fold change /veh NR4A2 (11747474_a_at) / RFU ABCC12 (11746883_a_at) / Fold change /veh ABCC12 (11746883_a_at) / RFU TMEM136 (11760407_x_at) / Fold change /veh TMEM136 (11760407_x_at) / RFU CLDN22 /// WWC2 (11732394_at) / Fold change /veh CLDN22 /// WWC2 (11732394_at) / RFU HLA-DPB1 (11760878_x_at) / Fold change /veh HLA-DPB1 (11760878_x_at) / RFU SPINT1 (11716480_a_at) / Fold change /veh SPINT1 (11716480_a_at) / RFU GAP43 (11754022_s_at) / Fold change /veh GAP43 (11754022_s_at) / RFU A4GNT (11735810_at) / Fold change /veh A4GNT (11735810_at) / RFU PRB3 (11715151_x_at) / Fold change /veh PRB3 (11715151_x_at) / RFU TUBB4B (11761932_at) / Fold change /veh TUBB4B (11761932_at) / RFU CAPN14 (11732068_a_at) / Fold change /veh CAPN14 (11732068_a_at) / RFU TMCC2 (11721928_a_at) / Fold change /veh TMCC2 (11721928_a_at) / RFU IRGQ (11745062_a_at) / Fold change /veh IRGQ (11745062_a_at) / RFU FAM174B (11720279_a_at) / Fold change /veh FAM174B (11720279_a_at) / RFU TMPRSS4 (11748680_a_at) / Fold change /veh TMPRSS4 (11748680_a_at) / RFU FAM212B (11763350_a_at) / Fold change /veh FAM212B (11763350_a_at) / RFU PLEKHG5 (11743358_a_at) / Fold change /veh PLEKHG5 (11743358_a_at) / RFU ZSCAN30 (11745921_a_at) / Fold change /veh ZSCAN30 (11745921_a_at) / RFU CMKLR1 (11741424_a_at) / Fold change /veh CMKLR1 (11741424_a_at) / RFU LOC101060620 /// MAPK8IP1 (11723275_at) / Fold change /veh LOC101060620 /// MAPK8IP1 (11723275_at) / RFU SPTSSB (11747773_x_at) / Fold change /veh SPTSSB (11747773_x_at) / RFU PRSS12 (11739890_at) / Fold change /veh PRSS12 (11739890_at) / RFU BIN1 (11741810_x_at) / Fold change /veh BIN1 (11741810_x_at) / RFU WNT11 (11732464_a_at) / Fold change /veh WNT11 (11732464_a_at) / RFU C10orf10 (11716521_a_at) / Fold change /veh C10orf10 (11716521_a_at) / RFU C5orf56 (11738089_at) / Fold change /veh C5orf56 (11738089_at) / RFU CYB561 (11721691_x_at) / Fold change /veh CYB561 (11721691_x_at) / RFU ANKRD19P (11752326_a_at) / Fold change /veh ANKRD19P (11752326_a_at) / RFU OR2T12 /// OR2T33 /// OR2T8 (11738714_s_at) / Fold change /veh OR2T12 /// OR2T33 /// OR2T8 (11738714_s_at) / RFU VCAN (11748164_a_at) / Fold change /veh VCAN (11748164_a_at) / RFU JSRP1 (11732532_at) / Fold change /veh JSRP1 (11732532_at) / RFU KRTAP10-11 (11738290_x_at) / Fold change /veh KRTAP10-11 (11738290_x_at) / RFU MYO3A (11730013_a_at) / Fold change /veh MYO3A (11730013_a_at) / RFU EBF3 (11725865_a_at) / Fold change /veh EBF3 (11725865_a_at) / RFU CAMK2N1 (11719241_x_at) / Fold change /veh CAMK2N1 (11719241_x_at) / RFU C5orf56 (11738088_a_at) / Fold change /veh C5orf56 (11738088_a_at) / RFU OLFML3 (11715873_a_at) / Fold change /veh OLFML3 (11715873_a_at) / RFU LOC100653217 /// NTM (11731650_a_at) / Fold change /veh LOC100653217 /// NTM (11731650_a_at) / RFU MAPK11 (11762145_a_at) / Fold change /veh MAPK11 (11762145_a_at) / RFU FIZ1 (11724087_x_at) / Fold change /veh FIZ1 (11724087_x_at) / RFU OASL (11726364_x_at) / Fold change /veh OASL (11726364_x_at) / RFU SOX15 (11748057_x_at) / Fold change /veh SOX15 (11748057_x_at) / RFU CD79A (11719716_a_at) / Fold change /veh CD79A (11719716_a_at) / RFU HIST1H1D (11736915_at) / Fold change /veh HIST1H1D (11736915_at) / RFU CASKIN2 (11723855_a_at) / Fold change /veh CASKIN2 (11723855_a_at) / RFU LOC730098 (11760151_x_at) / Fold change /veh LOC730098 (11760151_x_at) / RFU OR4N2 (11742367_at) / Fold change /veh OR4N2 (11742367_at) / RFU PRRT2 (11749266_a_at) / Fold change /veh PRRT2 (11749266_a_at) / RFU SNX32 (11753110_a_at) / Fold change /veh SNX32 (11753110_a_at) / RFU CDHR5 (11726645_a_at) / Fold change /veh CDHR5 (11726645_a_at) / RFU RCAN1 (11760418_a_at) / Fold change /veh RCAN1 (11760418_a_at) / RFU FAM167A (11723789_a_at) / Fold change /veh FAM167A (11723789_a_at) / RFU FAM26E (11764081_at) / Fold change /veh FAM26E (11764081_at) / RFU ISYNA1 (11749810_s_at) / Fold change /veh ISYNA1 (11749810_s_at) / RFU ACY1 (11761880_at) / Fold change /veh ACY1 (11761880_at) / RFU 11764098_at / Fold change /veh 11764098_at / RFU SAMD14 (11745864_x_at) / Fold change /veh SAMD14 (11745864_x_at) / RFU NPB (11741838_a_at) / Fold change /veh NPB (11741838_a_at) / RFU TMPRSS6 (11731388_a_at) / Fold change /veh TMPRSS6 (11731388_a_at) / RFU KRTAP10-2 (11738614_at) / Fold change /veh KRTAP10-2 (11738614_at) / RFU ARHGAP8 /// PRR5-ARHGAP8 (11727945_x_at) / Fold change /veh ARHGAP8 /// PRR5-ARHGAP8 (11727945_x_at) / RFU KRTAP5-7 /// NADSYN1 (11734609_at) / Fold change /veh KRTAP5-7 /// NADSYN1 (11734609_at) / RFU RASL12 (11751679_a_at) / Fold change /veh RASL12 (11751679_a_at) / RFU CDKN2B (11736163_a_at) / Fold change /veh CDKN2B (11736163_a_at) / RFU PRF1 (11729649_at) / Fold change /veh PRF1 (11729649_at) / RFU, ZNF638 /// ZNF638-IT1 / Fold change vs veh, ZNF638 /// ZNF638-IT1 / RFU, PANK3 / Fold change vs veh, PANK3 / RFU, SH3YL1 / Fold change vs veh, SH3YL1 / RFU, ZEB2 / Fold change vs veh, ZEB2 / RFU, NRIP1 / Fold change vs veh, NRIP1 / RFU, PTTG1IP / Fold change vs veh, PTTG1IP / RFU, CAPN2 / Fold change vs veh, CAPN2 / RFU, MED14 / Fold change vs veh, MED14 / RFU, SNORA58 / Fold change vs veh, SNORA58 / RFU, C1orf63 / Fold change vs veh, C1orf63 / RFU, LRRFIP1 / Fold change vs veh, LRRFIP1 / RFU, NDUFAF7 / Fold change vs veh, NDUFAF7 / RFU, SLC12A2 / Fold change vs veh, SLC12A2 / RFU, IBTK / Fold change vs veh, IBTK / RFU, ESF1 / Fold change vs veh, ESF1 / Fold change vs veh, TMEM50B / RFU, TAOK1 / Fold change vs veh, TAOK1 / RFU, ACBD3 / Fold change vs veh, ACBD3 / RFU, TMA16 / Fold change vs veh, TMA16 / RFU, RWDD3 / Fold change vs veh, RWDD3 / RFU, BCAT1 / Fold change vs veh, BCAT1 / RFU, EDEM3 / Fold change vs veh, EDEM3 / RFU, TMEM33 / Fold change vs veh, TMEM33 / RFU, WDR75 / Fold change vs veh, WDR75 / RFU, AHCTF1 / Fold change vs veh, AHCTF1 / RFU, TFRC / Fold change vs veh, TFRC / RFU, ZDHHC17 / Fold change vs veh, ZDHHC17 / RFU, NOM1 / Fold change vs veh, NOM1 / RFU, ARL8B / Fold change vs veh, ARL8B / RFU, ZBTB11 / Fold change vs veh, ZBTB11 / RFU, TAMM41 / Fold change vs veh, TAMM41 / RFU, KIAA1704 /// LOC100996395 / Fold change vs veh, KIAA1704 /// LOC100996395 / RFU, ING1 / Fold change vs veh, ING1 / RFU, TRMT61B / Fold change vs veh, TRMT61B / RFU, FUBP3 / Fold change vs veh, FUBP3 / RFU, TP53 / Fold change vs veh, TP53 / RFU, TNKS2 / Fold change vs veh, TNKS2 / RFU, ZFP14 / Fold change vs veh, ZFP14 / RFU, ACTR2 / Fold change vs veh, ACTR2 / RFU, PPP3R1 / Fold change vs veh, PPP3R1 / RFU, PIK3R1 / Fold change vs veh, PIK3R1 / RFU, HNRNPA1 / Fold change vs veh, HNRNPA1 / RFU, RNF170 / Fold change vs veh, RNF170 / RFU, ZNF28 / Fold change vs veh, ZNF28 / RFU, RNGTT / Fold change vs veh, RNGTT / RFU, OGT / Fold change vs veh, OGT / RFU, BRD1 / Fold change vs veh, BRD1 / RFU, MARS / Fold change vs veh, MARS / RFU, ZNF655 / Fold change vs veh, ZNF655 / RFU, FAHD1 / Fold change vs veh, FAHD1 / RFU, BDP1 / Fold change vs veh, BDP1 / RFU, LRRCC1 / Fold change vs veh, LRRCC1 / RFU, ARID1A / Fold change vs veh, ARID1A / RFU, ZNF146 / Fold change vs veh, ZNF146 / RFU, ZNF330 / Fold change vs veh, ZNF330 / RFU, GPN3 / Fold change vs veh, GPN3 / RFU, C9orf123 / Fold change vs veh, C9orf123 / RFU, N4BP2L2 / Fold change vs veh, N4BP2L2 / RFU, ARFIP1 / Fold change vs veh, ARFIP1 / RFU, FAM179B / Fold change vs veh, FAM179B / RFU, BCL10 / Fold change vs veh, BCL10 / RFU, UHRF1BP1L / Fold change vs veh, UHRF1BP1L / RFU, BET1 / Fold change vs veh, BET1 / RFU, CNOT2 / Fold change vs veh, CNOT2 / RFU, ZNF268 / Fold change vs veh, ZNF268 / Fold change vs veh, ZNF507 / RFU, DGCR2 / Fold change vs veh, DGCR2 / RFU, WDSUB1 / Fold change vs veh, WDSUB1 / Fold change vs veh, HSP90B1 /// MIR3652 / RFU, ADSS / Fold change vs veh, ADSS / RFU, GK / Fold change vs veh, GK / RFU, ZNF148 / Fold change vs veh, ZNF148 / RFU, TAF9 / Fold change vs veh, TAF9 / RFU, SLC1A5 / Fold change vs veh, SLC1A5 / RFU, SLMO2 / Fold change vs veh, SLMO2 / RFU, ABCC4 / Fold change vs veh, ABCC4 / RFU, LOC101060439 /// RAP1B / Fold change vs veh, LOC101060439 /// RAP1B / RFU, RFX7 / Fold change vs veh, RFX7 / RFU, GTPBP10 / Fold change vs veh, GTPBP10 / RFU, CNEP1R1 / Fold change vs veh, CNEP1R1 / RFU, BIVM-ERCC5 /// ERCC5 / Fold change vs veh, BIVM-ERCC5 /// ERCC5 / RFU, ILF3 / Fold change vs veh, ILF3 / RFU 11762660_at / Fold change /veh 11762660_at / RFU VCAN (11757783_s_at) / Fold change /veh VCAN (11757783_s_at) / RFU DDX43 (11728927_at) / Fold change /veh DDX43 (11728927_at) / RFU KRT8 (11758188_x_at) / Fold change /veh KRT8 (11758188_x_at) / RFU NKD1 (11759106_at) / Fold change /veh NKD1 (11759106_at) / RFU SRD5A1 (11742802_a_at) / Fold change /veh SRD5A1 (11742802_a_at) / RFU TPSAB1 /// TPSB2 (11721975_s_at) / Fold change /veh TPSAB1 /// TPSB2 (11721975_s_at) / RFU GSTM3 (11746129_a_at) / Fold change /veh GSTM3 (11746129_a_at) / RFU IL23R (11737362_x_at) / Fold change /veh IL23R (11737362_x_at) / RFU TMEM51 (11727254_a_at) / Fold change /veh TMEM51 (11727254_a_at) / RFU PIWIL2 (11732686_x_at) / Fold change /veh PIWIL2 (11732686_x_at) / RFU ORM1 (11744905_x_at) / Fold change /veh ORM1 (11744905_x_at) / RFU CCDC152 (11743942_at) / Fold change /veh CCDC152 (11743942_at) / RFU ECM1 (11717891_a_at) / Fold change /veh ECM1 (11717891_a_at) / RFU IL23R (11748794_a_at) / Fold change /veh IL23R (11748794_a_at) / RFU TNFAIP8L3 (11732012_x_at) / Fold change /veh TNFAIP8L3 (11732012_x_at) / RFU MBOAT4 (11741988_at) / Fold change /veh MBOAT4 (11741988_at) / RFU 11764193_at / Fold change /veh 11764193_at / RFU TMEM53 (11763286_at) / Fold change /veh TMEM53 (11763286_at) / RFU MAGEB2 (11727129_at) / Fold change /veh MAGEB2 (11727129_at) / RFU TMEM200A (11744735_a_at) / Fold change /veh TMEM200A (11744735_a_at) / RFU CCDC152 (11751479_a_at) / Fold change /veh CCDC152 (11751479_a_at) / RFU FAM211A (11726209_a_at) / Fold change /veh FAM211A (11726209_a_at) / RFU RGS16 (11746705_a_at) / Fold change /veh RGS16 (11746705_a_at) / RFU VCAN (11755009_s_at) / Fold change /veh VCAN (11755009_s_at) / RFU RHOB (11743442_s_at) / Fold change /veh RHOB (11743442_s_at) / RFU RGS16 (11720943_a_at) / Fold change /veh RGS16 (11720943_a_at) / RFU RGS16 (11720944_at) / Fold change /veh RGS16 (11720944_at) / RFU, VPS4B / Fold change vs veh, VPS4B / RFU, CREB1 / Fold change vs veh, CREB1 / RFU, DNAJC13 / Fold change vs veh, DNAJC13 / RFU, GNAQ / Fold change vs veh, GNAQ / RFU, CDK5R1 / Fold change vs veh, CDK5R1 / RFU, ZRANB3 / Fold change vs veh, ZRANB3 / RFU, CUL4A / Fold change vs veh, CUL4A / RFU, CCNY / Fold change vs veh, CCNY / RFU, UFL1 / Fold change vs veh, UFL1 / RFU, COG3 / Fold change vs veh, COG3 / RFU, DIAPH2 / Fold change vs veh, DIAPH2 / RFU, SKA2 / Fold change vs veh, SKA2 / RFU, AFF3 / Fold change vs veh, AFF3 / RFU, LMF1 / Fold change vs veh, LMF1 / RFU, IPO11 / Fold change vs veh, IPO11 / RFU, DFFB / Fold change vs veh, DFFB / RFU, FOXP1 / Fold change vs veh, FOXP1 / RFU, CARD8 / Fold change vs veh, CARD8 / RFU, STRN3 / Fold change vs veh, STRN3 / RFU, ADK / Fold change vs veh, ADK / RFU, RASSF2 / Fold change vs veh, RASSF2 / RFU, WIPF1 / Fold change vs veh, WIPF1 / RFU, LARP1B / Fold change vs veh, LARP1B / RFU, RASA1 / Fold change vs veh, RASA1 / RFU, RB1 / Fold change vs veh, RB1 / RFU, PPFIA1 / Fold change vs veh, PPFIA1 / RFU, MAT2A / Fold change vs veh, MAT2A / RFU, CCT5 / Fold change vs veh, CCT5 / RFU, WDR92 / Fold change vs veh, WDR92 / RFU, CUX1 / Fold change vs veh, CUX1 / RFU, TTC7A / Fold change vs veh, TTC7A / RFU, TMEM135 / Fold change vs veh, TMEM135 / RFU, DEPTOR / Fold change vs veh, DEPTOR / RFU, CPM / Fold change vs veh, CPM / RFU, DNAJB6 / Fold change vs veh, DNAJB6 / RFU, CACNA2D3 / Fold change vs veh, CACNA2D3 / RFU, DTX4 / Fold change vs veh, DTX4 / RFU, TFCP2 / Fold change vs veh, TFCP2 / RFU, GMCL1 /// GMCL1P1 / Fold change vs veh, GMCL1 /// GMCL1P1 / RFU, AEBP2 / Fold change vs veh, AEBP2 / RFU, SNHG1 /// SNORD22 /// SNORD25 /// SNORD26 /// SNORD27 /// SNORD28 /// SNORD29 /// SNORD31 / Fold change vs veh, SNHG1 /// SNORD22 /// SNORD25 /// SNORD26 /// SNORD27 /// SNORD28 /// SNORD29 /// SNORD31 / Fold change (Aza/veh), C12orf56 (ProbeSet 11735607_a_at) / Fold change (ACY-1035/veh), C12orf56 (ProbeSet 11735607_a_at) / Fold change (Aza/veh), FGFR1OP (ProbeSet 11751329_s_at) / Fold change (ACY-1035/veh), FGFR1OP (ProbeSet 11751329_s_at) / Fold change (Aza/veh), VPS36 (ProbeSet 11739960_a_at) / Fold change (ACY-1035/veh), VPS36 (ProbeSet 11739960_a_at) / RFU SYPL1 (11715823_x_at) / Fold change /veh SYPL1 (11715823_x_at) / RFU IGFBP7 (11715501_s_at) / Fold change /veh IGFBP7 (11715501_s_at) / RFU REEP3 (11722064_at) / Fold change /veh REEP3 (11722064_at) / RFU IGLL1 (11728026_x_at) / Fold change /veh IGLL1 (11728026_x_at): dose or concentration left out as unconfirmed", "conditions": "MV-4-11 cells, 48 hours", "data": [{"smiles": "Nc1ncn([C@@H]2O[C@H](CO)[C@@H](O)[C@H]2O)c(=O)n1", "note": "[azacitidine]", "values": [{"measurement": "Fold change /veh HIST1H1D (11736915_at)", "value": 1.16}]}]}
